From patent publication US10695347B2, “Pyrimidine derivative and use thereof” (Hubei Bio-Pharmaceutical Industrial Technological Institute …, priority 2015, dated 2020)
Where two headings read alike, the source gives them in different places.

What was measured:
ALK L1196M = ALK L1196M (Homo sapiens (Human), UniProt Q9UM73, L1196M); test: Inhibition of ALK L1196M kinase activity (Caliper mobility shift); assay type: biochemical
Protocol: (§1) Inhibition of Compound I Against ALK Kinase Activity
(§2) • I. Preparation of 1× kinase buffer and stop buffer
(§3) 1) 1× Kinase Buffer • 50 mM HEPES. pH 7.5 • 0.0015% Brij-35 • 10 mM MgCl2 • 2 mM DTT • 2) stop buffer • 100 mM HEPES, pH 7.5 • 0.015% Brij-35 • 0.2% Coating Reagent #3 • 50 mM EDTA
(§4) 2. Prepare a Compound Solution to be Tested • Step 2.1 Dilute the compound to 50× of the final desired highest inhibitor concentration in reaction by 100% DMSO. Transfer 100 μl of this compound dilution to a well in a 96-well plate. For example, if desired highest inhibitor concentration is 1 μM, then prepare 50 μM of compound DMSO solution in this step.
(§5) Step 2.2 Further dilute said compound dilution by 3-fold in series, thus obtain 10 concentrations.
(§6) Step 2.3 Add 100 μl of 100% DMSO to two empty wells for no compound control and no enzyme control in the same 96-well plate. Mark the plate as source plate.
(§7) Step 2.4 Prepare an intermediate plate
(§8) Transfer 10 μl of each compound from the source plate to a new 96-well plate as the intermediate plate.
(§9) Add 90 μl of 1× kinase buffer to each well of the intermediate plate. Mix the compounds in the intermediate plate for 10 min on a shaker.
(§10) Transfer 5 μl of each well from the 96-well intermediate plate to a 384-well plate in duplicate. For example, A1 of the 96-well plate is transferred to A1 and A2 of the 384-well plate. A2 of the 96-well plate is transferred to A3 and A4 of the 384-well plate, and so on.
(§11) 4.1 Prepare a 2.5× kinase solution
(§12) Add kinase in 1× kinase base buffer, thus obtain the 2.5× kinase solution.
(§13) 4.2 Prepare a 2.5× peptide solution
(§14) 4.3 In each well of the assay plate obtained in step 3, there was 5 μL of the compound in 10% DMSO.
(§15) 4.4 Transfer the 2.5× enzyme solution to the assay plate.
(§16) 4.5 Incubate at room temperature for 10 min.
(§17) 4.6 Transfer the 2.5× peptide solution to the assay plate.
(§18) 4.7 Kinase reaction and stop
(§19) Incubate at 28° C. for 20 min.
(§20) Add 25 μl of stop buffer to stop reaction.
(§21) Conversion rate of the kinase was read via the Caliper.
(§22) 6.1 Copy conversion data from Caliper program.
(§23) 6.2 Convert conversion values to inhibition values with the following formula: Percent inhibition=(max−conversion)/(max−min)*100
(§24) where “max” stands for DMSO control; and “min” stands for low control.
(§25) 6.3 Fit the data in XLfit excel add-in version 4.3.1 and obtain IC50 values according to the following formula: Y=Bottom+(Top−Bottom)/[…].

Ba/F3 EML4-ALK cells = test: Suppression of Ba/F3 EML4-ALK cell proliferation (CellTiter-Glo); assay type: cell-based; conditions: 3 days incubation
Excerpt: Cell media: RPMI-1640 medium, fetal calf serum (FCS), antibiotics (Penicillin-Streptomycin), IL-3, puromycin
Cell line: Ba/F3 EML4-ALK
Assay reagent: Cell Viability Assay Kit Celliter-Glo
(§26) Others: a 96-well plate, a 384-well plate, DMSO
(§27) As the amount of ATP can indicate the number of living cells directly, the living cells in medium are able to be quantified by determining the ATP level. In our experiment, we use a cell viability assay kit to quantify the living cells, which utilizes UltraGlow luciferase to generate a stable glow signal in the presence of ATP which is produced by metabolism of living cells, such as respiration. Specifically, a reagent CellTiter-Glo™ was added into cell culture media, and then the luminescent intensity was determined to measure proliferation of cells, as the luminescent intensity is in direct proportion to the ATP level which correlates positively to the number of living cells. The test plate was assayed by the Envision (PE).
(§28) Step 3.1 Culturing test cells
Ba/F3 EML4-ALK cells were planted into a 384-well plate, with almost 300 cells per well. The plate was placed in a carbon dioxide incubator overnight.
(§29) Step 3.2 Preparation of the compounds to be tested
10 concentrations of the working solutions were obtained in duplicate by dilution in 3-fold series with BRAVO.
Step 3.3 Mixing the compound to be tested with the test cells
The compounds to be tested at individual working concentrations were transferred into corresponding wells in the 384-well plate in the step 3.1, with 5 μM as the initial working concentration, and then the 384-well plate was incubated in the carbon dioxide incubator for 3 days.
To each well of the 384-well plate was added the reagent Promega CellTiter-Glo, and incubated at room temperature for 10 minutes to stabilize the luminescence signal. The results were read by the PerkinElmer Envision Multi-mode Plate Reader.

Karpas299 cells = test: Suppression of Karpas299 cell proliferation (CellTiter-Glo); assay type: cell-based; conditions: 3 days incubation, read-out: Inhibition activity on Karpas299 cells IC50
Protocol: as §27, with “culture” for “medium”, “living-cell testing” for “cell viability assay”, “tested with” for “assayed by”
Cell media: RPMI-1640 medium, fetal calf serum (FCS), antibiotics (Penicillin-Streptomycin)
Assay reagent: Cell Viability Assay Kit CellTiter-Glo
as §26, §28
Karpas 299 cells were plated into a black 384-well plate, with 2500 cells in 45 μl cell suspension per well. The plate was placed in a carbon dioxide incubator overnight.
as §29
Each compound to be tested was dissolved in DMSO at 10 mM as the stock solution, which was left in a nitrogen-gas tank for storage.
After dilution of 10 μL stock solution (10 mM) into 2.5 mM as a starting working solution, 10 concentrations of the working solutions from 5 μM to 0.25 nM were obtained in duplicate by further dilution in 3-fold series with ECHO.
Step 3.3 Mixing the compound with the test cells
To each well of a new 96-well plate were added 49 μl medium and 1 μl of the compounds to be tested at individual working concentrations (10 concentrations in total). After oscillation,
5 μl of mixture in each well of the 96-well plate was transferred into corresponding wells in the 384-well plate in the step 3.1. The 384-well plate was incubated in the carbon dioxide incubator for 3 days.
To each well of the 384-well plate was added […] reagent Promega CellTiter-Glo. and incubated at room temperature for 10 minutes to stabilize the luminescence signal. The results were read with the PerkinElmer Envision Multi-mode Plate Reader.

ALK = ALK (Homo sapiens (Human), UniProt Q9UM73); test: Inhibition of ALK kinase activity (Caliper mobility shift); assay type: biochemical
Protocol: as §1, §2, §3, §4, §5, §6, §7, §8, §9, §10, §11, §12, §13, §14, §15, §16, §17, §18, §19, §20, §21, §22, §23, §24, §25

ALK, sequence (Q9UM73 19-1620): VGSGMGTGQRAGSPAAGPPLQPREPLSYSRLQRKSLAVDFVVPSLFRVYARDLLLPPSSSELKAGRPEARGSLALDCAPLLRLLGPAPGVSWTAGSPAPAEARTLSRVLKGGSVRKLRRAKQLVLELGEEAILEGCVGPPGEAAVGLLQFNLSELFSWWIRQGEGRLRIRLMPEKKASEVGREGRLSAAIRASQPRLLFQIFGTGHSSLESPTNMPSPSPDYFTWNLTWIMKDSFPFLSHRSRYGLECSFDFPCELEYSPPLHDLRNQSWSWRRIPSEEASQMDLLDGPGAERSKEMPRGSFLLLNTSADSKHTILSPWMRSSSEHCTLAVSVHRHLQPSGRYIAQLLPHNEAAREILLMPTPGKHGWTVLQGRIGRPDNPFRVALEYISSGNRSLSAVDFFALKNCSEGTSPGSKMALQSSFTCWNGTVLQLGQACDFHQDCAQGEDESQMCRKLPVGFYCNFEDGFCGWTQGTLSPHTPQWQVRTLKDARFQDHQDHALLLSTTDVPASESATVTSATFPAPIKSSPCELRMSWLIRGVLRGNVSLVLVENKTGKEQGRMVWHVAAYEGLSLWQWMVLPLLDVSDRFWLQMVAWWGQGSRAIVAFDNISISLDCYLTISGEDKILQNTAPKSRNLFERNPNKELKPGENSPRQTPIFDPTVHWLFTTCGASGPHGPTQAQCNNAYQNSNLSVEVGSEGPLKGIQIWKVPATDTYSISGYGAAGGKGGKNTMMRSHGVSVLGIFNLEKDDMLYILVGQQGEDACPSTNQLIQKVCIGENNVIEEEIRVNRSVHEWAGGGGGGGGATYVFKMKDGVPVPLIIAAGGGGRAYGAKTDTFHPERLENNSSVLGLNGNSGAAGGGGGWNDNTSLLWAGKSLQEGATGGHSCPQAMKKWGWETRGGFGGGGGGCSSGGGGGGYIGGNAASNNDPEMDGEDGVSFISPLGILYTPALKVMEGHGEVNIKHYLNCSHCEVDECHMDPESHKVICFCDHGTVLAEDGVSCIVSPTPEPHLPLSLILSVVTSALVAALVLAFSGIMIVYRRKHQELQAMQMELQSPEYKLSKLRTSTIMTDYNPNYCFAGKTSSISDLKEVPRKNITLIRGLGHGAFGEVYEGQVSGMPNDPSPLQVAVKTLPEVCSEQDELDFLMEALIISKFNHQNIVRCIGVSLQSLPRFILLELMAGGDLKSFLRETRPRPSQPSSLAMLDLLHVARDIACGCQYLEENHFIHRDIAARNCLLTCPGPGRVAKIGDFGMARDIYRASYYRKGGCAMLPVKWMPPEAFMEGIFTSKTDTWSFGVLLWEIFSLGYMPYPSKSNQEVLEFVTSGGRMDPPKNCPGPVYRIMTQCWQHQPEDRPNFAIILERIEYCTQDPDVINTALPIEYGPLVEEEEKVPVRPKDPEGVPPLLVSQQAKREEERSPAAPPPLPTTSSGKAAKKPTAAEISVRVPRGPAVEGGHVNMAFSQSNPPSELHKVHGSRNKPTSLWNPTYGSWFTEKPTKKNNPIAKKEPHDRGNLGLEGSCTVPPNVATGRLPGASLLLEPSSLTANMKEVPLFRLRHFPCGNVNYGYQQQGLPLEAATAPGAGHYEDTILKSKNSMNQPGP
ALK L1196M, sequence (Q9UM73 19-1620 L1196M): as the sequence (Q9UM73 19-1620) above, with L1178M counted along it

Compound	IC50 (ALK L1196M)	IC50 (Ba/F3 EML4-ALK cells)	IC50 (Karpas299 cells)	IC50 (ALK)	IC50 (Ba/F3 EML4-ALK cells; Ba/F3 EML4-ALK, 72 h)	IC50 (Karpas299 cells; Homo sapiens, KARPAS-299, 72 h)
5-chloro-N^2-(2-isopropoxy-5-methyl-4-(1,2,3,6-tetrahydropiperidin-4-yl) phenyl)-N^4-(2-isopropylsulfonyl) pyridin-3-yl) pyrimidine-2,4-diamine [Compound I-90]	0.001 to 0.01 µM	< 0.02 µM	< 0.05 µM	0.001 to 0.01 µM		
COc1cc(N2CCOCC2)ccc1Nc1ncc(Cl)c(Nc2ccsc2S(=O)(=O)C(C)C)n1 [Compound I-1]					< 0.02 µM	< 0.05 µM
COc1cc(N2CCN(C)CC2)ccc1Nc1ncc(Cl)c(Nc2ccsc2S(=O)(=O)C(C)C)n1 [Compound I-2]					< 0.02 µM	< 0.05 µM
COc1cc(N2CCC(N(C)C)CC2)ccc1Nc1ncc(Cl)c(Nc2ccsc2S(=O)(=O)C(C)C)n1 [Compound I-3]					< 0.02 µM	< 0.05 µM
COc1cc(N2CCN(C)CC2)ccc1Nc1ncc(Cl)c(Nc2cccnc2S(=O)(=O)C(C)C)n1 [Compound I-5]	0.001 to 0.01 µM			0.001 to 0.01 µM	< 0.02 µM	< 0.05 µM
COc1cc(N2CCC(N(C)C)CC2)ccc1Nc1ncc(Cl)c(Nc2cccnc2S(=O)(=O)C(C)C)n1 [Compound I-6]	0.001 to 0.01 µM			0.001 to 0.01 µM	< 0.02 µM	< 0.05 µM
COc1cc(N2CCC(N3CCOCC3)CC2)ccc1Nc1ncc(Cl)c(Nc2cccnc2S(=O)(=O)C(C)C)n1 [Compound I-7]	0.001 to 0.01 µM			0.001 to 0.01 µM	< 0.02 µM	< 0.05 µM
COc1cc(N2CCC(N3CCOCC3)CC2)ccc1Nc1ncc(Cl)c(Nc2ccsc2S(=O)(=O)C(C)C)n1 [Compound I-8]					< 0.02 µM	< 0.05 µM
COc1cc(N2CCC(O)CC2)ccc1Nc1ncc(Cl)c(Nc2cccnc2S(=O)(=O)C(C)C)n1 [Compound I-9]	0.001 to 0.01 µM			0.001 to 0.01 µM	0.02 to 0.1 µM	< 0.05 µM
COc1cc(N2CCC(N3CCN(C)CC3)CC2)ccc1Nc1ncc(Cl)c(Nc2cccnc2S(=O)(=O)C(C)C)n1 [Compound I-10]	0.001 to 0.01 µM			0.001 to 0.01 µM	< 0.02 µM	< 0.05 µM
COc1cc(N2CCC(N3CCN(C)CC3)CC2)ccc1Nc1ncc(Cl)c(Nc2ccsc2S(=O)(=O)C(C)C)n1 [Compound I-11]	0.001 to 0.01 µM			0.001 to 0.01 µM	< 0.02 µM	< 0.05 µM
COc1cc(N2CCC(N3CC(C)OC(C)C3)CC2)ccc1Nc1ncc(Cl)c(Nc2cccnc2S(=O)(=O)C(C)C)n1 (stereo not drawn) [Compound I-12]	0.001 to 0.01 µM			0.001 to 0.01 µM	< 0.02 µM	0.05 to 0.1 µM
COc1cc(N2CCN(C)CC2)ccc1Nc1ncc(Cl)c(Nc2ccccc2S(=O)(=O)C(C)C)n1 [Compound I-13]					< 0.02 µM	< 0.05 µM
COc1cc(N2CCC(N(C)C)CC2)ccc1Nc1ncc(Cl)c(Nc2ccccc2S(=O)(=O)C(C)C)n1 [Compound I-14]					< 0.02 µM	< 0.05 µM
COc1cc(N2CCC(N3CCC(N(C)C)CC3)CC2)ccc1Nc1ncc(Cl)c(Nc2ccccc2S(=O)(=O)C(C)C)n1 [Compound I-15]					< 0.02 µM	0.05 to 0.1 µM
COc1cc(N2CCC(O)CC2)ccc1Nc1ncc(Cl)c(Nc2ccsc2S(=O)(=O)C(C)C)n1 [Compound I-16]					< 0.02 µM	< 0.05 µM
COc1cc(N2CCC(N3CC(C)OC(C)C3)CC2)ccc1Nc1ncc(Cl)c(Nc2ccccc2S(=O)(=O)C(C)C)n1 (stereo not drawn) [Compound I-17]	0.001 to 0.01 µM			0.001 to 0.01 µM	< 0.02 µM	< 0.05 µM
COc1cc(N2CCC(N3CCC(N(C)C)CC3)CC2)ccc1Nc1ncc(Cl)c(Nc2ccsc2S(=O)(=O)C(C)C)n1 [Compound I-18]	0.001 to 0.01 µM			0.001 to 0.01 µM	< 0.02 µM	< 0.05 µM
COc1cc(C2=CCNCC2)c(C)cc1Nc1ncc(Cl)c(Nc2cccnc2S(=O)(=O)C(C)C)n1 [Compound I-89]				0.001 to 0.01 µM	< 0.02 µM	0.05 to 0.1 µM
CC(C)S(=O)(=O)c1ccccc1Nc1nc(Nc2ccc(N3CCC(N(C)C)CC3)cc2OC(F)F)ncc1Cl [Compound I-95]					0.02 to 0.1 µM	< 0.05 µM
COc1cc(CN2CCC(N(C)C)CC2)ccc1Nc1ncc(OC(F)F)c(Nc2ccccc2S(=O)(=O)C(C)C)n1 [Compound I-103]				0.001 to 0.01 µM	< 0.02 µM	0.05 to 0.1 µM
COc1cc(CN2CCC(N(C)C)CC2)ccc1Nc1ncc(Cl)c(Nc2cccnc2S(=O)(=O)C(C)C)n1 [Compound I-107]	0.001 to 0.01 µM				0.02 to 0.1 µM	0.05 to 0.1 µM
CC(C)S(=O)(=O)c1ccccc1Nc1nc(Nc2ccc(N3CCC(N(C)C)CC3)cc2OC(F)F)ncc1OC(F)F [Compound I-114]					< 0.02 µM	< 0.05 µM
